What all share (format): cell-based
Assay [1] addresses T1, Helios (Homo sapiens, UniProt Q96SW2+Q9UKS7). Nature of the assay: Helios Cellular Degradation Assay (Helios readout). Also on record: Jurkat cells were plated at 80,000 cells/well; endogenous in cells; host or cells: Jurkat. As to conditions: Jurkat cells, 72 h incubation, Helios-PE antibody staining, flow cytometry; read-out: Helios Jurkat IC50. Here is the method: (§1) Jurkat cells were plated at 80,000 cells/well in 40 μL RPMI+10% FBS in a 384 well cell culture plate prior to using acoustic dispensing technology for adding compound of interest. Cell cultures were incubated for 72 h at 37° C. and 5% C02. In order to facilitate analysis, cell cultures were spun down at 200 rpm for 5 min and the supernatant was discarded. After shaking the plate to dislodge the cell pellet, cells were resuspended in 50 μL of Fixation Buffer (eBioScience FoxP3 buffer set 00-5523-00) for 60 min at room temperature. After centrifuging and discarding the supernatant, cells were permeabilized with 50 μL of Permeabilization buffer (eBioScience FoxP3 buffer set 00-5523-00) for 10 min at room temperature. Following permeabilization, cells were spun down and the supernatant was replaced with 20 μL fluorescently labelled antibodies against Helios, Ikaros and Aiolos or corresponding Isotype controls in 1× Permeabilization buffer (Ikaros-Alexa488 [Biolegend, Cat #368408, 1:50], Helios-PE [CST, Cat #29360, 1:50], Aiolos-Alexa647 [Biolegend, Cat #371106Biolegend, 1:25]) and staining reactions were incubated for 1 h at room temperature; protected from light. […] Stained cells were resuspended in 25 μL of flow cytometry staining buffer (PBS+0.2% BSA) and analyzed using an Intellicyt Ique Plus flow cytometer.
For orientation: In flow cytometry, cells or beads pass a laser one at a time.

The target of assay [2] is T2, Ikaros (Homo sapiens, UniProt Q13422+Q96SW2). Nature of the assay: Helios Cellular Degradation Assay (Ikaros readout). The note with it: Jurkat cells, 72 h incubation, Ikaros-Alexa488 antibody staining, flow cytometry; read-out: Ikaros Jurkat IC50. Also on record: Jurkat cells were plated at 80,000 cells/well; endogenous in cells; host or cells: Jurkat. The protocol:
as §1

Assay [3] addresses T1, Helios. Briefly: Helios Cellular Degradation Assay (Helios readout). Details: endogenous in cells; host or cells: Jurkat. As to conditions: Jurkat cells, 72 h incubation, Helios-PE antibody staining, flow cytometry; read-out: Helios Jurkat IC50. An outline of the steps: (§2)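 Jurkat cells (80,000/well, RPMI+10% FBS) were treated with compound for 72 h at 37° C. After fixation and permeabilization they were stained with fluorescent antibodies to Helios, Ikaros and Aiolos. Intracellular protein levels were quantified by flow cytometry.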

Assay [4] concerns the target T2, Ikaros. Briefly: Helios Cellular Degradation Assay (Ikaros readout). Details: endogenous in cells; host or cells: Jurkat. The note with it: Jurkat cells, 72 h incubation, Ikaros-Alexa488 antibody staining, flow cytometry; read-out: Ikaros Jurkat IC50. An outline of the steps:
as §2

Where two headings read alike, the source gives them in different places. Some results are limits rather than exact numbers.

T2 sequence (Q13422 whole entry): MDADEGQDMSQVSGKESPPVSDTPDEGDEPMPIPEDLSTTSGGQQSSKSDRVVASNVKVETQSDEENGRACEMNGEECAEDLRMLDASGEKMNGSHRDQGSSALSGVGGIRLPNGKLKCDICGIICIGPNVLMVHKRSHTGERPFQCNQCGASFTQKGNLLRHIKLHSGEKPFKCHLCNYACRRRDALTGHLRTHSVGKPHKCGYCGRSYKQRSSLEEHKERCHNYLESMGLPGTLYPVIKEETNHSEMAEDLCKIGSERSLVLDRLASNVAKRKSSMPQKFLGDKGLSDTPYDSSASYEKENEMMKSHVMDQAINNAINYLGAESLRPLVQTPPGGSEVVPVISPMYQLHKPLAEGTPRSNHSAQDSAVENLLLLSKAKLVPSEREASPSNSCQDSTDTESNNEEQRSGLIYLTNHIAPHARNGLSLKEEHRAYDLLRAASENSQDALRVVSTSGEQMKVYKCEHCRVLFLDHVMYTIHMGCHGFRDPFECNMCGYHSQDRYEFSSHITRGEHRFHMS
T2 sequence (Q96SW2 whole entry): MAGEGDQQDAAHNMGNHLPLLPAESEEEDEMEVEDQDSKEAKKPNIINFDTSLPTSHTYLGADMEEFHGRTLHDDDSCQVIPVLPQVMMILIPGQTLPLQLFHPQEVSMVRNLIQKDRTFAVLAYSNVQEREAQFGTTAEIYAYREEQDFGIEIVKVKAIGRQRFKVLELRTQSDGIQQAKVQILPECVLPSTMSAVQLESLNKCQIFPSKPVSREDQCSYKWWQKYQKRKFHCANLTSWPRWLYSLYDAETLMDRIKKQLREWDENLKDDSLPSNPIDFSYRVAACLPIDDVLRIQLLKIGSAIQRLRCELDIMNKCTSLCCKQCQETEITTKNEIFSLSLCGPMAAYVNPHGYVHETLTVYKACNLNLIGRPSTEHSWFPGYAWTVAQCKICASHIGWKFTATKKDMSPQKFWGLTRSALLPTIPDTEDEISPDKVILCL
T2 sequence (Q16531 whole entry partner): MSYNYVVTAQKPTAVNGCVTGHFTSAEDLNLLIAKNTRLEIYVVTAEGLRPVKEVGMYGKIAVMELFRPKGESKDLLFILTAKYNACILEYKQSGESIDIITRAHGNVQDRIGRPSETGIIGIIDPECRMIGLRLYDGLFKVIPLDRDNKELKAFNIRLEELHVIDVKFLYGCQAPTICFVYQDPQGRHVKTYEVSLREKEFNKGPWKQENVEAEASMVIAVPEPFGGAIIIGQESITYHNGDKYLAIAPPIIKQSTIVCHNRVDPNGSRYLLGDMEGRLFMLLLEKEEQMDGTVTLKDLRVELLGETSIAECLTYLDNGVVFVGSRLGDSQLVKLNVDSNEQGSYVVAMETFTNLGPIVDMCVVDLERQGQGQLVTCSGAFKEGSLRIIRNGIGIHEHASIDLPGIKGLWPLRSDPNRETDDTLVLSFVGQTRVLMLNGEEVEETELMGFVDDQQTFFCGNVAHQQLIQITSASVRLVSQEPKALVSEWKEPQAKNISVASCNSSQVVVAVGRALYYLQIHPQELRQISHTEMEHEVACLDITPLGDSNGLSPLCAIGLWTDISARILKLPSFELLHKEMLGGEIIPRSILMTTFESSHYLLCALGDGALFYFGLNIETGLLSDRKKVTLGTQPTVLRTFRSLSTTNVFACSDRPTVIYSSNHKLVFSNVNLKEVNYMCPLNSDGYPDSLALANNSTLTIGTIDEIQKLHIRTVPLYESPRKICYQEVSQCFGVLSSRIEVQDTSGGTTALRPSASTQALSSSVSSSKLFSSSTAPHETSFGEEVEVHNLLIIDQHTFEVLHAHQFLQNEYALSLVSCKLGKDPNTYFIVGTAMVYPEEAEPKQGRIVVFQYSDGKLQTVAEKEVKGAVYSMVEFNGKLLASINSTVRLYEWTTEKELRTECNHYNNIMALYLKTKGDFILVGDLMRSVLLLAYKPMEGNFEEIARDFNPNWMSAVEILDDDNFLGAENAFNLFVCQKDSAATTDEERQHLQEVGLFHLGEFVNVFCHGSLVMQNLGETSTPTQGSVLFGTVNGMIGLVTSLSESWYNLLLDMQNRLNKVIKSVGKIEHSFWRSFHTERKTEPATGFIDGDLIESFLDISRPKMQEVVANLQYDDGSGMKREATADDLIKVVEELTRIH
T1 sequence (Q9UKS7 whole entry): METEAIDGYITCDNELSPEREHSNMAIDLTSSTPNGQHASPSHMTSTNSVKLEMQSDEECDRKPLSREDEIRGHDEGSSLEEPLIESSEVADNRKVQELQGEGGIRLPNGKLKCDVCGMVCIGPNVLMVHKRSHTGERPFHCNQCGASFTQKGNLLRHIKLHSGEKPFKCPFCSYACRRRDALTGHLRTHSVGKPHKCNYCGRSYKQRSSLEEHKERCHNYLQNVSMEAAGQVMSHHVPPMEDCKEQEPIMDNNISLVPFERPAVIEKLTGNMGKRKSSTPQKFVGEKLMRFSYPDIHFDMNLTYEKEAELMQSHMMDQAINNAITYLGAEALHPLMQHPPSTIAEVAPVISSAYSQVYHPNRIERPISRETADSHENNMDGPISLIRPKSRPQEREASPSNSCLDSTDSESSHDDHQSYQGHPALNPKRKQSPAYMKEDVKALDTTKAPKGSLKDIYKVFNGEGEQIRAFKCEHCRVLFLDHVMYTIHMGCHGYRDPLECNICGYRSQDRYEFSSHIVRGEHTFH
T1 sequence (Q96SW2 whole entry): as the sequence (Q96SW2 whole entry) above
T1 sequence (Q16531 whole entry partner): as the sequence (Q16531 whole entry partner) above

Turning to `O=C1CCC(N2Cc3cc(-c4cc(COCc5ccccc5)ccn4)ccc3C2=O)C(=O)N1` (stereo not shown) [Example 154], the values for the DC50 on Helios [1] and at Ikaros [2] were 3980 nM and not below 10000 nM, respectively.

`Nc1cc(C(F)(F)F)cc(-c2ccc3c(c2)CN(C2CCC(=O)NC2=O)C3=O)n1` (stereo not shown) [Example 163, 3-(5-(6-amino-4-(trifluoromethyl)pyridin-2-yl)-1-oxoisoindolin-2-yl)piperidine-2,6-dione]: the values for the DC50 on Helios [3] and at Ikaros [4] were 90 nM and not below 20000 nM, respectively.

Take `O=C1CCC(N2Cc3cc(-c4cc5[nH]ccc5cn4)ccc3C2=O)C(=O)N1` (stereo not shown) [Example 159, 3-(1-oxo-5-(1H-pyrrolo[3,2-c]pyridin-6-yl)isoindolin-2-yl)piperidine-2,6-dione]: the DC50 on Helios [3] was determined as 50 nM; at Ikaros [4] it was 320 nM.

As for `N#Cc1cnc(-c2ccc3c(c2)CN(C2CCC(=O)NC2=O)C3=O)nc1N` (stereo not shown) [Example 80, 4-Amino-2-[2-(2,6-dioxopiperidin-3-yl)-1-oxo-2,3-dihydro-1H-isoindol-5-yl]pyrimidine-5-carbonitrile], the DC50 is 320 nM on Helios [3] and more than 20000 nM at Ikaros [4].

`Cc1ccc2nc(-c3ccc4c(c3)CN(C3CCC(=O)NC3=O)C4=O)ccc2c1` (stereo not shown) [Example 39, 3-[5-(6-methylquinolin-2-yl)-1-oxo-2,3-dihydro-1H-isoindol-2-yl]piperidine-2,6-dione]: the DC50 is 25 nM on Helios [3] and more than 20000 nM on Ikaros [4].

The values above are taken from patent US12570671B2 (BRISTOL-MYERS SQUIBB COMPANY, priority 2020, dated 2026).
